Results published in patent publication US8399506B2, “Combinations of 4 bromo-2-(4-chlorophenyl)-5-(trifluoromethyl)-1H-pyrrole-3-carbonitrile and oxidizing agents” (Janssen Pharmaceutica, NV, priority 2006, dated 2013).
Read-outs that look alike come from different tables or passages of the source.

Tests used:
[1] = test system: Anabaena cylindrica CCAP 1403/2A; test: Experiment 1 poison plate assay, algae species (2); format: cell-based; conditions: for MIC-values in ppm: 24-well plates, BG 11 medium, after 3 weeks of exposure, total active ingredient, ratio (I) to (II) in label
Method: (§1) Synergism between component (I) and one of the components (II) was determined by a commonly used and accepted method described by Kull F. C. et al. in Applied Microbiology, 9, 538-541 (1961) using the Synergy Index, which is calculated as follows for two compounds A and B:
(§2) [formula] wherein: • QA is the concentration of compound A in ppm, acting alone, which produced an end point (e.g. MIC), • Qa is the concentration of compound A in ppm, in the mixture, which produced an end point (e.g. MIC), • QB is the concentration of compound B in ppm, acting alone, which produced an end point (e.g. MIC), • Qb is the concentration of compound B in ppm, in the mixture, which produced an end point (e.g. MIC).
(§3) MIC is the minimum inhibitory concentration, i.e. the lowest concentration of each test compound or mixture of test compounds sufficient to inhibit visible growth.
(§4) When the Synergy Index is greater than 1.0, antagonism is indicated. When the SI is equal to 1.0, additivity is indicated.

[2] = test system: Anabaena cylindrica CCAP 1403/2A; test: Experiment 2 poison plate assay, algae species (2); format: cell-based; conditions: 24-well plates, BG 11 medium, after 3 weeks of exposure, total active ingredient, ratio (I) to (II) in label
Method: as §1, §2, §3, §4
(§5) Synergism between component (I) and one of the components (II) was determined using the Synergy Index as outlined above in Experiment 1.

[3] = test system: Artemia salina (EG Artemia Cysts, Great Salt Lake strain); test: Experiment 1 poison plate assay, Artemia salina larvae; format: in vivo; conditions: Artemia salina larvae (24 hours old), artificial seawater; after 24 hours of exposure; total active ingredient; ratio (I) to (II) in label
Method: as §1, §2, §3, §4

[4] = test system: Chlamydomonas sphagnophila CCAP 11/36E; test: Experiment 1 poison plate assay, algae species (3); format: cell-based; conditions: 24-well plates, BG 11 medium, after 3 weeks of exposure, total active ingredient, ratio (I) to (II) in label
Method: as §1, §2, §3, §4

[5] = test system: Tribonema sp. CCAP 880/2; test: Experiment 2 poison plate assay, algae species (4); format: cell-based
Method: as §1, §2, §3, §4, §5

[6] = buffer
[7] = test system: Chlorella vulgaris CCAP 211/12; test: Experiment 2 poison plate assay, algae species (1); format: cell-based; conditions: 24-well plates, BG 11 medium, after 3 weeks of exposure, total active ingredient, ratio (I) to (II) in label
Method: as §1, §2, §3, §4, §5

N#Cc1c(-c2ccc(Cl)cc2)[nH]c(C(F)(F)F)c1Br [(I), 4-bromo-2-(4-chlorophenyl)-5-(trifluoromethyl)-1H-pyrrole-3-carbonitrile]
MIC ([1]; CCAP1403/2A, 504 h, read-out: MIC-values in ppm): 107 µg/mL
MIC-values in ppm ([2]; listed as (I) + (II-e) 100 + 0): 19 ppm
MIC-values in ppm ([2]; listed as (I) + (II-f) 100 + 0): 25.3 ppm
MIC-values in ppm ([2]; listed as (I) + (II-g) 100 + 0): 6.00 ppm
MIC-values in ppm [3]: 0.13 ppm
MIC-values in ppm [4]: 107.0 ppm
MIC ([5]; 504 h, read-out: MIC-values in ppm): 107 µg/mL
half-life [6]: a couple of days
half-life ([6]; pH 8.3): a few hours
MIC-values in ppm [7]: 107.0 ppm

OO [(II-a), hydrogen peroxide]
MIC-values in ppm [1]: 25.3 ppm
MIC-values in ppm [4]: 45.0 ppm

[Na+].[O-]Cl [(II-b), sodium hypochlorite]
MIC-values in ppm [1]: 33.8 ppm
MIC-values in ppm [3]: 200.00 ppm
MIC-values in ppm [4]: 107.0 ppm

[O][Cl+][O-] [(II-c), chlorine dioxide]
MIC-values in ppm [7]: 9.49 ppm

O=S(=O)([O-])OOS(=O)(=O)[O-].[K+].[K+] [(II-d), potassium peroxydisulfate]
MIC-values in ppm [7]: 60.0 ppm

[K+].[K+].[O-][O-] [(II-f), potassium peroxide]
MIC-values in ppm [2]: 10.7 ppm

potassium (VI) ferrate [(II-h)]
MIC-values in ppm ([5]; Tribonema sp., 24-well plates, BG 11 medium, after 3 weeks of exposure, total active ingredient, ratio (I) to (II) in label): 80.0 ppm

potassium nitrosodisulfonate [(II-g)]
MIC-values in ppm [2]: 80.0 ppm

potassium superoxide [(II-e)]
MIC-values in ppm [2]: 45.0 ppm
